Test results published in ChEMBL document CHEMBL5038667, “Discovery of an Amino Acid-Modified Near-Infrared Aza-BODIPY Photosensitizer as an Immune Initiator for Potent Photodynamic Therapy in Melanoma” (J Med Chem, 2022).
The source made the active and inactive calls. The rule behind the calls is not given here.

Tests used:
[1] = Phototoxicity against mouse B16-F10 cells assessed as reduction in cell viability incubated for 16 hrs followed by irradiated with 54 J/cm^2 of light dose and further incubated for 24 hrs by CCK-8 assay; assay type: toxicity, cell-based; details: B16-F10, light or radiation study
A-375 [2] = test: Dark toxicity against human A-375 cells assessed as reduction in cell viability incubated for 16 hrs by CCK-8 assay; assay type: functional, cell-based; details: A-375, 16 h
[3] = Phototoxicity against human A-375 cells assessed as reduction in cell viability incubated for 16 hrs followed by irradiated with 54 J/cm^2 of light dose and further incubated for 24 hrs by CCK-8 assay; assay type: toxicity, cell-based; details: A-375, light or radiation study
HeLa = test: Dark toxicity against human HeLa cells assessed as reduction in cell viability incubated for 16 hrs by CCK-8 assay; assay type: functional, cell-based
[4] = Phototoxicity against human HeLa cells assessed as reduction in cell viability incubated for 16 hrs followed by irradiated with 54 J/cm^2 of light dose and further incubated for 24 hrs by CCK-8 assay; assay type: toxicity, cell-based; details: light or radiation study
[5] = Drug localisation in mitochondria of mouse B16-F10 cells at 5 uM incubated for 16 hrs by Mito Tracker Green FM based confocal laser scanning microscopy analysis; assay type: ADME; details: b16-f10, 16 h
[6] = Drug localisation in mitochondria of human A-375 cells at 5 uM incubated for 16 hrs by Mito Tracker Green FM based confocal laser scanning microscopy analysis; assay type: ADME; details: a-375, 16 h
B16-F10 [7] = test: Induction of ROS generation in mouse B16-F10 cells assessed as cells with high intracellular ROS levels at 20 nM incubated for 16 hrs followed by irradiated with 54 J/cm^2 of light dose by H2DCFDA fluorescent probe based flow cytometry method (reference value: 1.96 %); assay type: functional
B16-F10 [8] = test: Induction of ROS generation in mouse B16-F10 cells assessed as cells with high intracellular ROS levels at 100 nM incubated for 16 hrs followed by irradiated with 54 J/cm^2 of light dose by H2DCFDA fluorescent probe based flow cytometry method (reference value: 1.96 %); assay type: functional
A-375 [9] = test: Induction of ROS generation in human A-375 cells assessed as cells with high intracellular ROS levels at 20 nM incubated for 16 hrs followed by irradiated with 54 J/cm2 light dose by H2DCFDA fluorescent probe based flow cytometry method (reference value: 2.09 %); assay type: functional
B16-F10 [10] = test: Induction of apoptosis in mouse B16-F10 cells assessed as viable cells at 50 nM incubated for 16 hrs followed by irradiated with 54 J/cm^2 of light dose by Annexin V-FITC/PI based flow cytometric analysis (reference value: 87.45 %); assay type: functional; details: B16-F10, light or radiation study, read-out: Activity
B16-F10 [11] = test: Induction of apoptosis in mouse B16-F10 cells assessed as viable cells at 250 nM incubated for 16 hrs followed by irradiated with 54 J/cm^2 of light dose by Annexin V-FITC/PI based flow cytometric analysis (reference value: 87.45 %); assay type: functional; details: B16-F10, light or radiation study, read-out: Activity
B16-F10 [12] = test: Induction of apoptosis in mouse B16-F10 cells assessed as early apoptotic cells at 50 nM incubated for 16 hrs followed by irradiated with 54 J/cm^2 light dose by Annexin V-FITC/PI based flow cytometric analysis (reference value: 6.48 %); assay type: functional
B16-F10 [13] = test: Induction of apoptosis in mouse B16-F10 cells assessed as early apoptotic cells at 250 nM incubated for 16 hrs followed by irradiated with 54 J/cm^2 light dose by Annexin V-FITC/PI based flow cytometric analysis (reference value: 6.48 %); assay type: functional
B16-F10 [14] = test: Induction of apoptosis in mouse B16-F10 cells assessed as necrotic cells at 250 nM incubated for 16 hrs followed by irradiated with 54 J/cm^2 light dose by Annexin V-FITC/PI based flow cytometric analysis (reference value: 3.75 %); assay type: functional
A-375 [15] = test: Induction of apoptosis in human A-375 cells assessed as total apoptotic cells at 10 nM incubated for 16 hrs followed by irradiated with 54 J/cm^2 light dose by Annexin V-FITC/PI based flow cytometric analysis (reference value: 4.79 %); assay type: functional
A-375 [16] = test: Induction of apoptosis in human A-375 cells assessed as total apoptotic cells at 250 nM incubated for 16 hrs followed by irradiated with 54 J/cm^2 light dose by Annexin V-FITC/PI based flow cytometric analysis (reference value: 4.79 %); assay type: functional
B16-F10 [17] = test: Antitumor immunity against mouse B16-F10 cells assessed as surface translocation of CRT at 50 nM incubated for 16 hrs followed by irradiated with 54 J/cm^2 light dose and further incubated for 6 hrs by Alexa Fluor 488/Hoechst 33342 staining based confocal laser scanning microscopy; assay type: functional, cell-based
B16-F10 [18] = test: Antitumor immunity against mouse B16-F10 cells assessed as surface translocation of CRT at 10 nM incubated for 16 hrs followed by irradiated with 54 J/cm^2 light dose and further incubated for 6 hrs by Alexa Fluor 488/Hoechst 33342 staining based confocal laser scanning microscopy; assay type: functional, cell-based
B16-F10 [19] = test: Antitumor immunity against mouse B16-F10 cells assessed as release of HMGB1 at 50 nM incubated for 16 hrs followed by irradiated with 54 J/cm^2 light dose and further incubated for 6 hrs by Alexa Fluor 488/Hoechst 33342 staining based confocal laser scanning microscopy; assay type: functional, cell-based
[20] = Drug elimination in C57BL/6 mouse harboring B16-F10 cells at 2 mg/kg, iv measured after 48 hrs by fluorescence imaging assay; assay type: ADME, organism-based; details: in vivo
[21] = Biodistribution in liver of C57BL/6 mouse harboring mouse B16-F10 cells at 2 mg/kg, iv measured after 12 hrs by flourescence imaging assay; assay type: ADME, organism-based; details: in vivo
[22] = Biodistribution in lungs of C57BL/6 mouse harboring mouse B16-F10 cells at 2 mg/kg, iv measured after 12 hrs by flourescence imaging assay; assay type: ADME, organism-based, Lung; details: in vivo
[23] = Biodistribution in kidneys of C57BL/6 mouse harboring mouse B16-F10 cells at 2 mg/kg, iv measured after 12 hrs by flourescence imaging assay; assay type: ADME, organism-based, Kidney; details: in vivo
B16-F10 [24] = test: Antitumor activity against mouse B16-F10 cells implanted in C57BL/6 mouse assessed as inhibition of tumor growth at 2 mg/kg, iv irradiated with 60 J/cm^2 laser light by IVIS imaging analysis measured upto 48 hrs; assay type: functional, organism-based; details: time hrs <=48
B16-F10 [25] = test: Antitumor activity against mouse B16-F10 cells implanted in C57BL/6 mouse assessed as tumor destruction at 2 mg/kg, iv irradiated with 60 J/cm^2 laser light measured after 14 days by hematoxylin and eosin based microscopic analysis; assay type: functional, organism-based; details: time 14.0 day
B16-F10 [26] = test: Photodynamic therapy in mouse B16-F10 cells implanted in C57BL/6 mouse model assessed as increase in infiltration of CD4+ T cells by APC/FITC/PE staining based flow cytometric analysis (reference value: 4.85 %); assay type: functional
B16-F10 [27] = test: Photodynamic therapy in mouse B16-F10 cells implanted in C57BL/6 mouse model assessed as increase infiltration of CD4+ T cells measured after 3 days by immunofluorescence staining based analysis; assay type: functional, cell-based; details: time 3.0 day
B16-F10 [28] = test: Photodynamic therapy in mouse B16-F10 cells implanted in C57BL/6 mouse model assessed as increase infiltration of CD8+ T cells measured after 3 days by immunofluorescence staining based analysis; assay type: functional, cell-based; details: time 3.0 day

COc1ccc(C2=[N+]3C(=Nc4c(-c5ccccc5)c5c(n4[B-]3(F)F)-c3ccc(OCC(=O)N[C@@H](CC(=O)O)C(=O)O)cc3CC5)C(c3ccccc3)=C2I)cc1
IC50 [1]: 0.065 µM
IC50 (A-375 [2]): > 250 µM
IC50 [3]: 0.081 µM
IC50 (HeLa): > 250 µM
IC50 [4]: 0.021 µM
Drug uptake [5]: Active
Drug uptake [6]: Active
Activity (B16-F10 [7]): 6.77%
Activity (B16-F10 [8]): 70.29%
Activity (A-375 [9]): 4.57%
viability at 0.05 µM (B16-F10 [10]): 41.9%
viability at 0.25 µM (B16-F10 [11]): 3.76%
Activity (B16-F10 [12]): 40.92%
Activity (B16-F10 [13]): 75.41%
Activity (B16-F10 [14]): 0.29%
Activity (A-375 [15]): 6.68%
Activity (A-375 [16]): 93.81%
Activity (B16-F10 [17]): Active
Activity (B16-F10 [18]): inactive
Activity (B16-F10 [19]): Active
Drug excretion [20]: Active
Drug uptake [21]: Active
Drug uptake [22]: Active
Drug uptake [23]: Active
Activity (B16-F10 [24]): Active
Activity (B16-F10 [25]): Active
Activity (B16-F10 [26]): 8.11%
Activity (B16-F10 [27]): Active
Activity (B16-F10 [28]): Active
